From ChEMBL document CHEMBL1129258, “Synthesis and structure-activity relationships of 2-pyridones: a novel series of potent DNA gyrase inhibitors as antibacterial agents” (J Med Chem, 1996) come the findings set out here.

Values after ≈ are worked out from the molar mass of the structure shown.

Series [1] addresses T1, DNA gyrase (Escherichia coli) (UniProt P0AES6+P0AES4). The series is described as follows: In vitro antibacterial activity against gram-negative organism Klebsiella pneumoniae ATCC 8045. The class given is functional.
The next series has as its system Pseudomonas aeruginosa. The series is described as follows: In vivo efficacy against Pseudomonas aeruginosa 5007 following p.o. administration.
Series [2] concerns the target T2, DNA gyrase (Staphylococcus aureus) (UniProt P0A0K8+P20831). The series is described as follows: In vitro antibacterial activity against gram-positive organism Staphylococcus aureus 1775. The class given is functional.
Series [3] deals with T1, DNA gyrase (Escherichia coli). The series is described as follows: In vitro antibacterial activity against gram-positive organism Streptococcus bovis A-5169. Type of series: functional. The settings on record: Streptococcus equinus.
Series [4] is described as follows: In vitro antibacterial activity against gram-negative organism Pseudomonas aeruginosa DPHD-2862. Type of series: functional.
Series [5] concerns the target T1, DNA gyrase (Escherichia coli). The series is described as follows: In vitro antibacterial against gram-negative organism Escherichia coli JUHL. The class given is functional. The settings on record: Escherichia coli K-12.
For series [6] the target is unchanged. The series is described as follows: In vitro antibacterial activity against gram-positive organism Enterococcus faecium ATCC 8043. Type of series: functional.
Series [7] has the same target. The series is described as follows: In vitro antibacterial activity against gram-negative organism […] ATCC 13048. Type of series: functional. The settings on record: Enterobacter aerogenes.
A short description of series [8]: In vivo efficacy against Pseudomonas aeruginosa 5007 after subcutaneous administration. Type of series: functional. The settings on record: Pseudomonas aeruginosa, sc; read-out: ED50.
Series [9] addresses T1, DNA gyrase (Escherichia coli). The series is described as follows: In vivo efficacy against Escherichia coli JUHL after oral administration. The class given is functional, organism-based. The settings on record: Escherichia coli K-12.
Series [10] concerns Streptococcus pneumoniae. The series is described as follows: (§1) In vivo efficacy against Strep. administration. Type of series: functional.
Series [11] deals with T1, DNA gyrase (Escherichia coli). The series is described as follows: In vitro antibacterial activity against gram-negative organism Prov. stuartii CMX-640. The class given is functional. The settings on record: Providencia stuartii.
Series [12] deals with T2, DNA gyrase (Staphylococcus aureus). The series is described as follows: In vivo efficacy against Staphylococcus aureus NCTC-10649M after subcutaneous administration. The class given is functional, organism-based.
Series [13] shares this target. The series is described as follows: In vitro antibacterial activity against gram-positive organism Staphylococcus aureus ATCC 6538p. Type of series: functional.
In the next series the test system is Streptococcus pyogenes. The series is described as follows: In vitro antibacterial activity against gram-positive organism Streptococcus pyogenes EES61. The class given is functional.
The target of series [14] is T2, DNA gyrase (Staphylococcus aureus). The series is described as follows: In vivo efficacy against Staphylococcus aureus NCTC-10649M after oral administration. The class given is functional, organism-based.
A short description of series [15]: In vitro antibacterial activity against gram-negative organism Pseudomonas aeruginosa 5007. The settings on record: Pseudomonas aeruginosa; read-out: MIC. Type of series: functional.
For series [16], the system named is Streptococcus pneumoniae. The series is described as §1. Type of series: functional. The source holds these as a separate data set.
In series [17] the target is T2, DNA gyrase (Staphylococcus aureus). The series is described as follows: In vitro antibacterial activity against gram-positive organism Staphylococcus aureus NCTC-10649M. The class given is functional.
The target in series [18] is T1, DNA gyrase (Escherichia coli). The series is described as follows: In vivo efficacy against Escherichia coli JUHL by subcutaneous administration. Type of series: functional, organism-based. The settings on record: Escherichia coli K-12.
The target is the same in series [19]. The settings on record: Escherichia coli K-12.
Description: Concentration which causes 50% of the gyrase (Escherichia coli H560)-mediated maximal DNA cleavage.
In a further series the test system is Enterococcus faecalis. The series is described as follows: Inhibitory activity against enterococcus faecalis Van B. Type of series: functional.
For a further series, the system named is Enterococcus faecium. The series is described as follows: Inhibitory activity against enterococcus faecium Van A. The class given is functional.
In series [20] the test system is Streptococcus pneumoniae. The series is described as follows: In vivo efficacy against Strep. administered. Type of series: functional.
Series [21] can be described thus: in vivo. The settings on record: rat, plasma, po, 5 mg/kg.
Series [22] is described as follows: in vivo. The settings on record: rat, po, 5 mg/kg.
Description: Oral bioavailability in rat (dose 5 mg/kg)
A short description of series [23]: Maximum plasma concentration in rats after an oral dose of 5 mg/kg. The settings on record: rat.
Setting [24] is: Pseudomonas aeruginosa, read-out: MIC.
[25] abbreviates: Streptococcus pneumoniae, read-out: ED50.
Setting [26] is: Streptococcus pyogenes, read-out: MIC.

T2 sequence (P0A0K8 2-644 limits assumed): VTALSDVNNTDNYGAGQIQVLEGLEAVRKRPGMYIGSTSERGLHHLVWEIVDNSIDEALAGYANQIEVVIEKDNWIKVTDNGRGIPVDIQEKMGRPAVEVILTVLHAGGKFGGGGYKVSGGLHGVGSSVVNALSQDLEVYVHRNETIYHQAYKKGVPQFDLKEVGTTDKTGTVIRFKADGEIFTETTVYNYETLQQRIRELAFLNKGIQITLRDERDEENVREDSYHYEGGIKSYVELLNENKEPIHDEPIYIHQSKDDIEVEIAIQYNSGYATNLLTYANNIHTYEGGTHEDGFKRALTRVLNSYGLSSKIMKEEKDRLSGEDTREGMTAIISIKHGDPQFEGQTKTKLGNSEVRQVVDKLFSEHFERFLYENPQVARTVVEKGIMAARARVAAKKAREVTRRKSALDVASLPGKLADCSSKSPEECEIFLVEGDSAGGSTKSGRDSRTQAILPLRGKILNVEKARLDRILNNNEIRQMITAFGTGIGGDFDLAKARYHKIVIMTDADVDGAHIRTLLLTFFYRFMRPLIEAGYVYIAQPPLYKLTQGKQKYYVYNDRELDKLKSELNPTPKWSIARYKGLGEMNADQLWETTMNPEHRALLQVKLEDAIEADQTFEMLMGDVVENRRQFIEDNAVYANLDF
T2 sequence (P20831 whole entry partner): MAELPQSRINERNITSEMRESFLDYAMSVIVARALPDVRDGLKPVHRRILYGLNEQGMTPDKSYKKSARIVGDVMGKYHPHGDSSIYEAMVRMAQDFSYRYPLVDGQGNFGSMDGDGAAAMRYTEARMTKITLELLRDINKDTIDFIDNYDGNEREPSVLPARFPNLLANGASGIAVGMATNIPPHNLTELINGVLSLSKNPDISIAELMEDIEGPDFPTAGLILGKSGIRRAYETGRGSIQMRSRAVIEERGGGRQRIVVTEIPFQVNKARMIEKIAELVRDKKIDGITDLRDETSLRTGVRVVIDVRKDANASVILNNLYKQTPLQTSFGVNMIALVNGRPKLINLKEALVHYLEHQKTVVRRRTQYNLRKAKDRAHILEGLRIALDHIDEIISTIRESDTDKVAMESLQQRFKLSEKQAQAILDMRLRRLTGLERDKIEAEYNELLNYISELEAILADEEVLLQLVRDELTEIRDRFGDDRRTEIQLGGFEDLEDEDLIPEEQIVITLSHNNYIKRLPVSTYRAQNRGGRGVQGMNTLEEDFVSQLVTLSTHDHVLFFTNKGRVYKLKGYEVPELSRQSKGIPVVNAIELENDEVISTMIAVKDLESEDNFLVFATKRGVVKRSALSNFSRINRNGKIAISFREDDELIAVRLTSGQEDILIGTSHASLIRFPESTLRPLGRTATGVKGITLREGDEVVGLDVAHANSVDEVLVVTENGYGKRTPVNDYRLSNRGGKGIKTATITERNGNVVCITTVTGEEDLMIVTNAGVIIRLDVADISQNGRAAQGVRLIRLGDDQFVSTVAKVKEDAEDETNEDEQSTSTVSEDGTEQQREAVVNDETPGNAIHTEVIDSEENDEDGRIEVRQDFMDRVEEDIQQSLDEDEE

As for `Cc1c(N2CCC(N)C2)c(F)cn2c(=O)c(C(=O)O)cc(C3CC3)c12` (centres undefined), the MIC in [1] stood at 0.002 µg/mL (≈ 0.00579 µM); in series [2], 1.56 µg/mL (≈ 4.52 µM); in series [3], 0.02 µg/mL (≈ 0.0579 µM); in series [4] (setting [24]), 0.78 µg/mL (≈ 2.26 µM); in series [5], 0.002 µg/mL (≈ 0.00579 µM); in series [6] it was 0.02 µg/mL (≈ 0.0579 µM). Further, the MIC in series [7] amounted to 0.005 µg/mL (≈ 0.0145 µM); in series [11], 0.2 µg/mL (≈ 0.579 µM); in series [13], 0.01 µg/mL (≈ 0.029 µM); in the series with Streptococcus pyogenes (setting [26]) it was 0.02 µg/mL (≈ 0.0579 µM); in series [15], 0.05 µg/mL (≈ 0.145 µM); in series [17] it was 0.01 µg/mL (≈ 0.029 µM). For the same compound, the ED50 (usually the midpoint of the dose-response relation) in the series with Pseudomonas aeruginosa is 4.6 mg/kg; in series [8] it was 0.5 mg/kg; in series [9] it was less than 0.3 mg/kg; in the series with Streptococcus pneumoniae [10] (setting [25]), 12.5 mg/kg; in series [12], 1 mg/kg; in [14], 4.1 mg/kg. The ED50 with Streptococcus pneumoniae [16] is 6.2 mg/kg; in series [18] it was 0.4 mg/kg. The CC50 in series [19] was 0.05 µg/mL (≈ 0.145 µM).
On to `Cc1c(N2C[C@@H]3CCCN[C@@H]3C2)c(F)cn2c(=O)c(C(=O)O)cc(C3CC3)c12` (stereo in doubt; 45n), for which the MIC was determined as 3.1 µg/mL (≈ 8.04 µM) in [4], 0.06 µg/mL (≈ 0.156 µM) against Enterococcus faecalis, 0.5 µg/mL (≈ 1.3 µM) with Enterococcus faecium and 0.01 µg/mL (≈ 0.0259 µM) with Streptococcus pyogenes. The ED50 in the series with Streptococcus pneumoniae [10] is 12.5 mg/kg; with Streptococcus pneumoniae [16], 4.4 mg/kg.
For `Cc1c(N2CC[C@@H]([C@H](C)N)C2)c(F)cn2c(=O)c(C(=O)O)cc(C3CC3)c12`, the MIC was 0.005 µg/mL (≈ 0.0134 µM) in [1]; 0.05 µg/mL (≈ 0.134 µM) in series [2]; less than 0.001 µg/mL in series [3]; 1.56 µg/mL (≈ 4.18 µM) in series [4] (setting [24]); less than 0.001 µg/mL in [5]; less than 0.001 µg/mL in series [6]. Further, the MIC is 0.01 µg/mL (≈ 0.0268 µM) in series [7]; 0.2 µg/mL (≈ 0.536 µM) in [11]; less than 0.001 µg/mL in series [13]; less than 0.001 µg/mL in the series on Streptococcus pyogenes (setting [26]); 0.05 µg/mL (≈ 0.134 µM) in [15]; less than 0.001 µg/mL in series [17]. The ED50 with Pseudomonas aeruginosa was 13 mg/kg; in series [8], 1 mg/kg; in series [9] it was 3.3 mg/kg; in the series on Streptococcus pneumoniae [10] it was less than 3.1 mg/kg; in [12], less than 0.2 mg/kg; in the series with Streptococcus pneumoniae [20], less than 1.3 mg/kg. Moreover, the results for the ED50 in series [14] and in [18] were 7.2 mg/kg and 0.5 mg/kg, respectively. In series [19], the CC50 is 0.3 µg/mL (≈ 0.803 µM).
In the case of `Cc1c(N2CC[C@@H](N)C2)c(F)cn2c(=O)c(C(=O)O)cc(C3CC3)c12`, the MIC in series [1] is 0.005 µg/mL (≈ 0.0145 µM); in series [2], 1.56 µg/mL (≈ 4.52 µM); in series [3], 0.1 µg/mL (≈ 0.29 µM); in series [4] (setting [24]), 1.56 µg/mL (≈ 4.52 µM); in [5], 0.005 µg/mL (≈ 0.0145 µM); in [6], 0.05 µg/mL (≈ 0.145 µM). Also, the MIC came to 0.01 µg/mL (≈ 0.029 µM) in [7]; 0.2 µg/mL (≈ 0.579 µM) in series [11]; 0.01 µg/mL (≈ 0.029 µM) in series [13]; 0.05 µg/mL (≈ 0.145 µM) with Streptococcus pyogenes (setting [26]); 0.05 µg/mL (≈ 0.145 µM) in [15]; 0.02 µg/mL (≈ 0.0579 µM) in [17]. In addition, the ED50 was 6.2 mg/kg in the series on Pseudomonas aeruginosa; 2.4 mg/kg in [8]; 1 mg/kg in series [9]; 0.9 mg/kg in series [12]; less than 3.1 mg/kg in series [14]; 0.3 mg/kg in [18]. In the series “in vivo [21]”, the half-life (usually the time needed for the level to fall by half in the phase considered) was 1.1 h. The bioavailability (usually dose-corrected exposure relative to a reference, in per cent) in the series “in vivo [22]” was determined as 10%. Further, the Cmax – broadly, the maximum level reached in the sampled fluid or tissue – in [23] turned out to be 80 ng/mL. The same compound displayed a CC50 in series [19] of 0.15 µg/mL (≈ 0.434 µM).
For `Cc1c(N2CC[C@H](O)C2)c(F)cn2c(=O)c(C(=O)O)cc(C3CC3)c12`, the MIC in series [1] worked out at 0.01 µg/mL (≈ 0.0289 µM); in series [2], 0.39 µg/mL (≈ 1.13 µM); in series [3], 0.1 µg/mL (≈ 0.289 µM); in series [4] (setting [24]), 3.1 µg/mL (≈ 8.95 µM); in series [5], 0.02 µg/mL (≈ 0.0577 µM); in series [6] it was 0.05 µg/mL (≈ 0.144 µM). For the same compound, the MIC in [7] was 0.1 µg/mL (≈ 0.289 µM); in series [11] it was 0.39 µg/mL (≈ 1.13 µM); in series [13], 0.005 µg/mL (≈ 0.0144 µM); in series [15], 0.39 µg/mL (≈ 1.13 µM); in series [17] it was 0.005 µg/mL (≈ 0.0144 µM). Further, the ED50 with Streptococcus pneumoniae [10] was more than 10 mg/kg; in series [12], 1.5 mg/kg; in series [14] it was 5.3 mg/kg; in the series with Streptococcus pneumoniae [16], more than 2 mg/kg.
For `Cc1c(N2C[C@H]3CCCN[C@H]3C2)c(F)cn2c(=O)c(C(=O)O)cc(C3CC3)c12` (single isomer, unassigned), the MIC was 0.005 µg/mL (≈ 0.013 µM) in [1]; 0.78 µg/mL (≈ 2.02 µM) in [2]; 0.05 µg/mL (≈ 0.13 µM) in series [3]; 12.5 µg/mL (≈ 32.4 µM) in [4] (setting [24]); 0.05 µg/mL (≈ 0.13 µM) in series [5]; 0.1 µg/mL (≈ 0.259 µM) in series [6]. Further, the MIC in series [7] is 0.05 µg/mL (≈ 0.13 µM); in [11] it was 1.56 µg/mL (≈ 4.05 µM); in series [13], 0.05 µg/mL (≈ 0.13 µM); in the series with Streptococcus pyogenes (setting [26]) it was 0.05 µg/mL (≈ 0.13 µM); in series [15], 0.78 µg/mL (≈ 2.02 µM); in [17], 0.05 µg/mL (≈ 0.13 µM). The ED50 with Pseudomonas aeruginosa was more than 50 mg/kg; in series [8], more than 8 mg/kg; in the series with Streptococcus pneumoniae [10] (setting [25]), 32.2 mg/kg; in series [12], 6.1 mg/kg; with Streptococcus pneumoniae [20] (setting [25]) it was more than 8 mg/kg; in series [14], 29.3 mg/kg. The ED50 in [18] is more than 1 mg/kg.
